This data set in a line: Neurotoxicity assay: MTS viability of primary cortical neuronal cultures. The class given is cell-based, mouse. Particulars: BL6Jx129sv, mouse, primary cortical neuronal cultures, Neuronal cells, read-out: Cytotoxicity (% viable at 1 and 10 uM); for viability at 4 days, 1 uM: test compound 1 uM; for viability at 4 days, 10 uM: test compound 10 uM. Here is the method: Media was then replaced with Neurobasal media (Invitrogen Life Technologies) and B27 supplements (Invitrogen Life Technologies). Cultures were maintained at 37° C. in 5% CO2. Prior to experimentation, the culture medium was replaced with Neurobasal media and B27 minus antioxidants (Invitrogen Life Technologies).
Cell viability is determined using the MTS assay. Culture medium is replaced with fresh neurobasal medium plus B27 supplements minus antioxidants. 1/10th volume MTS solution (Cell Titre 96 Aqueous One, Promega Corporation) and incubated at 37° C., 2 hrs. 200 microlitre aliquots are measured with a spectrophotometer at 560 nm.
Neuronal cortical cells were cultured for five days as per Assay 2 in NB media and B27 supplement.
On day six the test compounds were added to the neuronal cell cultures in NB media and B27 supplement minus antioxidants.
Test compounds were dissolved in 100% DMSO to a concentration of 2.5 mM (10 mM if excess compound was weighed out per vial—then diluted to 2.5 mM). […] Test compounds were not added directly to cells, instead they were added to a 48 well ‘Drug Plate’ as comprised below:
The Drug Plate was incubated at 37° C. for 15 mins. 200 μl of each well was added in triplicate to the corresponding cell plate. The cell plate was incubated at 37 C, for 4 days.
On completion of the assay, 1/10 volume MTS was added per well of plate (i.e. 25 μl/250 μl). The plates were incubated at 37 C for 2 hrs, and then absorbance was read at 560 nm.

As for `Nc1ccc(O)c2ncccc12`, the viability at 4 days, 1 uM came to 108% and the viability at 4 days, 10 uM came to 71%.

For the compound `Oc1c(Cl)cc(Cl)c2cccnc12`, the viability at 4 days, 1 uM amounted to 98% and the viability at 4 days, 10 uM is 75%.

Regarding `Oc1c(I)cc(I)c2cccnc12`, the viability at 4 days, 1 uM stood at 91% and the viability at 4 days, 10 uM is 95%.

Take `Oc1c(Br)cc(Br)c2cccnc12`: the viability at 4 days, 1 uM is 100% and the viability at 4 days, 10 uM was 94%.

With `Oc1ccc(Cl)c2cccnc12`, the viability at 4 days, 1 uM is 94% and the viability at 4 days, 10 uM came to 85%.

In the case of `Cc1ccc2cccc(O)c2n1`, the viability at 4 days, 1 uM is 98% and the viability at 4 days, 10 uM was found to be 58%.

With `Nc1ccc2cccc(O)c2n1`, the viability at 4 days, 1 uM is 95% and the viability at 4 days, 10 uM stood at 48%.

As for `N#Cc1ccc2cccc(O)c2n1`, the viability at 4 days, 1 uM stood at 94% and the viability at 4 days, 10 uM amounted to 97%.

With `Cc1cc(C)c2cccnc2c1O`, the viability at 4 days, 1 uM stood at 86% and the viability at 4 days, 10 uM was determined as 85%.

In the case of `Oc1ccc(/C=C/c2ccc3cccc(O)c3n2)cc1`, the viability at 4 days, 1 uM is 100% and the viability at 4 days, 10 uM is 75%.

As for `Oc1ccc(CCc2ccc3cccc(O)c3n2)cc1`, the viability at 4 days, 1 uM was 89% and the viability at 4 days, 10 uM stood at 86%.

For the compound `Oc1c(Br)cc(-c2ccccc2)c2cccnc12`, the viability at 4 days, 1 uM is 100% and the viability at 4 days, 10 uM came out at 97%.

`Oc1c(-c2ccccc2)cc(Cl)c2cccnc12`: the viability at 4 days, 1 uM is 93% and the viability at 4 days, 10 uM was 72%.

With `O=C(NCCc1cnc[nH]1)c1cc(O)c2cccc(O)c2n1`, the viability at 4 days, 1 uM stood at 100% and the viability at 4 days, 10 uM was determined as 100%.

Turning to `O=C(NCc1ccccn1)c1cc(O)c2cccc(O)c2n1`, the viability at 4 days, 1 uM stood at 100% and the viability at 4 days, 10 uM is 100%.

With `O=C(O)CNC(=O)c1ccc2cccc(O)c2n1`, the viability at 4 days, 1 uM came to 100% and the viability at 4 days, 10 uM amounted to 89%.

On to `NCCNC(=O)c1ccc2cccc(O)c2n1`, for which the viability at 4 days, 1 uM was 106% and the viability at 4 days, 10 uM amounted to 96%.

For `N=C(N)NCc1ccc2cccc(O)c2n1`, the viability at 4 days, 1 uM was 100% and the viability at 4 days, 10 uM turned out to be 89%.

In the case of `CC(=O)NCc1ccc2cccc(O)c2n1`, the viability at 4 days, 1 uM was determined as 100% and the viability at 4 days, 10 uM stood at 91%.

For the compound `NCc1ccc2cccc(O)c2n1`, the viability at 4 days, 1 uM was 101% and the viability at 4 days, 10 uM was determined as 97%.

Consider `O/N=C/c1ccc2cccc(O)c2n1`, for which the viability at 4 days, 1 uM was 100% and the viability at 4 days, 10 uM is 95%.

As for `Oc1c(-c2cc3ccccc3s2)cc(Cl)c2cccnc12`, the viability at 4 days, 1 uM came to 87% and the viability at 4 days, 10 uM amounted to 32%.

In the case of `Oc1c(-c2cc(Cl)c3cccnc3c2O)cc(Cl)c2cccnc12`, the viability at 4 days, 1 uM was 97% and the viability at 4 days, 10 uM was 84%.

On to `Oc1c(-c2ccsc2)cc(Cl)c2cccnc12`, for which the viability at 4 days, 1 uM turned out to be 93% and the viability at 4 days, 10 uM amounted to 31%.

As for `Oc1c(-c2ccc(F)cc2F)cc(Cl)c2cccnc12`, the viability at 4 days, 1 uM was 90% and the viability at 4 days, 10 uM stood at 42%.

`Nc1ccccc1NC(=O)c1cc(O)c2cccc(O)c2n1`: the viability at 4 days, 1 uM was found to be 98% and the viability at 4 days, 10 uM is 82%.

Take `O=C(CNC(=O)c1cc(O)c2cccc(O)c2n1)NCCc1c[nH]cn1`: the viability at 4 days, 1 uM came to 98% and the viability at 4 days, 10 uM amounted to 89%.

`O=C(CNC(=O)c1cc(O)c2cccc(O)c2n1)NCc1ccccn1`: the viability at 4 days, 1 uM turned out to be 93% and the viability at 4 days, 10 uM is 93%.

Regarding `Oc1cccc2ccc(CNCCc3c[nH]cn3)nc12`, the viability at 4 days, 1 uM worked out at 101% and the viability at 4 days, 10 uM was 43%.

With `CN(CCc1ccccn1)Cc1ccc2cccc(O)c2n1`, the viability at 4 days, 1 uM stood at 97% and the viability at 4 days, 10 uM is 57%.

For `Oc1cccc2ccc(CNCc3ccccn3)nc12`, the viability at 4 days, 1 uM came to 96% and the viability at 4 days, 10 uM worked out at 67%.

On to `O=C(O)CNC(=O)c1cc(O)c2cccc(O)c2n1`, for which the viability at 4 days, 1 uM turned out to be 98% and the viability at 4 days, 10 uM is 94%.

`Cc1nccn1-c1ccc2cccc(O)c2n1`: the viability at 4 days, 1 uM came out at 104% and the viability at 4 days, 10 uM was found to be 96%.

Take `Oc1cccc2ccc(-n3cncn3)nc12`: the viability at 4 days, 1 uM came out at 102% and the viability at 4 days, 10 uM worked out at 97%.

For `Oc1cccc2ccc(CN(CCc3c[nH]cn3)Cc3nccs3)nc12`, the viability at 4 days, 1 uM was determined as 82% and the viability at 4 days, 10 uM turned out to be 34%.

For `Oc1cccc2ccc(CN(Cc3ccccn3)Cc3nccs3)nc12`, the viability at 4 days, 1 uM amounted to 97% and the viability at 4 days, 10 uM amounted to 38%.

As to `CSc1ccccc1-c1ccc2cccc(O)c2n1`, the viability at 4 days, 1 uM worked out at 114% and the viability at 4 days, 10 uM worked out at 112%.

For the compound `Oc1cccc2ccc(-c3ccccn3)nc12`, the viability at 4 days, 1 uM came to 107% and the viability at 4 days, 10 uM was 75%.

As to `Cc1cccc(-c2ccc3cccc(O)c3n2)n1`, the viability at 4 days, 1 uM worked out at 91% and the viability at 4 days, 10 uM came out at 58%.

On to `Oc1cccc2ccc(CN(CCc3c[nH]cn3)Cc3c[nH]cn3)nc12`, for which the viability at 4 days, 1 uM worked out at 97% and the viability at 4 days, 10 uM was found to be 26%.

Regarding `Oc1cccc2ccc(CN(CCc3c[nH]cn3)Cc3ccccn3)nc12`, the viability at 4 days, 1 uM was 98% and the viability at 4 days, 10 uM amounted to 27%.

For `Oc1cccc2ccc(CN(Cc3ccccn3)Cc3ccccn3)nc12`, the viability at 4 days, 1 uM is 87% and the viability at 4 days, 10 uM was 23%.

On to `Oc1cccc2ccc(CN(Cc3ccccn3)Cc3c[nH]cn3)nc12`, for which the viability at 4 days, 1 uM stood at 90% and the viability at 4 days, 10 uM stood at 70%.

Consider `O=C(c1ccc2cccc(O)c2n1)N(Cc1ccccn1)Cc1ccccn1`, for which the viability at 4 days, 1 uM was found to be 81% and the viability at 4 days, 10 uM came out at 79%.

Consider `CC(=O)Nc1ccc2cccc(O)c2n1`, for which the viability at 4 days, 1 uM worked out at 93% and the viability at 4 days, 10 uM stood at 89%.

With `O/N=C/c1ccc2c(Cl)cc(Cl)c(O)c2n1`, the viability at 4 days, 1 uM stood at 91% and the viability at 4 days, 10 uM was 70%.

For `CO/N=C/c1ccc2c(Cl)cc(Cl)c(O)c2n1`, the viability at 4 days, 1 uM was determined as 77% and the viability at 4 days, 10 uM came out at 54%.

Turning to `NC(=O)c1ccc2c(Cl)cc(Cl)c(O)c2n1`, the viability at 4 days, 1 uM came out at 74% and the viability at 4 days, 10 uM worked out at 86%.

As to `O=C(O)c1ccc2c(Cl)cc(Cl)c(O)c2n1`, the viability at 4 days, 1 uM amounted to 88% and the viability at 4 days, 10 uM was determined as 80%.

As for `O=c1[nH]cnc2c(O)cccc12`, the viability at 4 days, 1 uM was 101% and the viability at 4 days, 10 uM was 89%.

Turning to `Oc1c(Cl)cc(Cl)c2ccc(-c3ccccn3)nc12`, the viability at 4 days, 1 uM worked out at 55% and the viability at 4 days, 10 uM came to 31%.

As for `CN(c1ccccn1)c1ccc2c(Cl)cc(Cl)c(O)c2n1`, the viability at 4 days, 1 uM stood at 100% and the viability at 4 days, 10 uM was determined as 59%.

As for `Oc1c(Cl)cc(-c2cccnc2)c2cccnc12`, the viability at 4 days, 1 uM was found to be 101% and the viability at 4 days, 10 uM is 84%.

Regarding `Oc1c(Cl)cc(Cl)c2cc(Cl)cnc12`, the viability at 4 days, 1 uM came to 82% and the viability at 4 days, 10 uM came to 55%.

For `Nc1cnc2c(O)c(Cl)cc(Cl)c2c1`, the viability at 4 days, 1 uM was found to be 94% and the viability at 4 days, 10 uM was found to be 10%.

Turning to `Cc1cnc2c(Cl)cc(Cl)c(O)c2n1`, the viability at 4 days, 1 uM stood at 100% and the viability at 4 days, 10 uM worked out at 93%.

In the case of `Cc1cnc2c(O)c(Cl)cc(Cl)c2n1`, the viability at 4 days, 1 uM was 94% and the viability at 4 days, 10 uM was found to be 87%.

Regarding `O=c1c2c(Cl)cc(Cl)c(O)c2ncn1CC1CCNCC1`, the viability at 4 days, 1 uM is 97% and the viability at 4 days, 10 uM was 96%.

Take `CCCn1c(CNC)nc2c(O)c(Cl)cc(Cl)c2c1=O`: the viability at 4 days, 1 uM was 110% and the viability at 4 days, 10 uM stood at 102%.

Take `COc1c(Cl)cc(Cl)c2c(=O)n(N)cnc12`: the viability at 4 days, 1 uM worked out at 99% and the viability at 4 days, 10 uM came out at 93%.

Take `CNCc1ccc2c(Cl)cc(Cl)c(O)c2n1`: the viability at 4 days, 1 uM was 86% and the viability at 4 days, 10 uM was 78%.

For `NCc1ccc2c(Cl)cc(Cl)c(O)c2n1`, the viability at 4 days, 1 uM was found to be 100% and the viability at 4 days, 10 uM came to 80%.

In the case of `CCN(CC)Cc1ccc2c(Cl)cc(Cl)c(O)c2n1`, the viability at 4 days, 1 uM amounted to 74% and the viability at 4 days, 10 uM was determined as 70%.

With `Oc1cccc2c(=S)n(Cc3ccccn3)cnc12`, the viability at 4 days, 1 uM stood at 97% and the viability at 4 days, 10 uM came out at 90%.

Turning to `CC(Br)CCn1cnc2c(O)c(Cl)cc(Cl)c2c1=O` (stereo not drawn), the viability at 4 days, 1 uM stood at 101% and the viability at 4 days, 10 uM was found to be 73%.

Regarding `CCOC(=O)c1cnc2c(O)c(CC)ncc2c1`, the viability at 4 days, 1 uM came to 103% and the viability at 4 days, 10 uM was determined as 92%.

The values are drawn from patent US20100069393A1, “METHOD OF TREATMENT AND AGENTS USEFUL FOR SAME” (PRANA BIOTECHNOLOGY LIMITED, priority 2006, published 2010).
